In patent publication US7816342B2, “Anti-obesity compositions” (Hoffmann-La Roche Inc., priority 2002, dated 2010):
Several values for one entry are separate records, joined by “and”; a condition that tells them apart may be missing. Equal entries are not always repeated.

System: Healthy volunteers
Experiment: acute human side effect model (3-meal test), free oil
Type: in vivo
Details: orlistat alone (own control), individual volunteers
Source text: To test substances that will ameliorate the oil-related side effects associated with orlistat treatment, an acute human model was developed. Healthy volunteers received orlistat alone or in combination with the test substance during 3 consecutive meals (3-meal test). The modified orlistat formulations used in these 3-meal tests induce 70-80% fat excretion. A questionnaire was given to the volunteers to record side effects. The most severe oil related side effect is oily spotting (uncontrolled loss of oil). This side effect is difficult to quantify accurately in an acute model, however, in some volunteers a spontaneous separation of fat from formed stool was observed. This amount of fat, called free oil (mainly containing triglycerides) was isolated and weighted. The amount of free oil was used as a surrogate marker for the oily spotting as this is considered necessary for the appearance of oily spotting. Two clinical studies have been conducted to investigate the gastro-intestinal adverse event modifying effects of numerous substances. It appears that volunteers show an individual sensitivity to the orlistat-related gastro-intestinal side effects. […] For a given volunteer a substance is considered as positive when the free oil quantity is reduced by at least 50% compared to the control value (orlistat alone). […]

Q: Which Free oil production (Test 1) does the source give for CCCCCCCCCCC[C@@H](C[C@@H]1OC(=O)[C@H]1CCCCCC)OC(=O)[C@H](CC(C)C)NC=O [orlistat] here?
A: The Free oil production was 11 g/week and 9 g/week.

Q: And the Free oil production (Test 2)?
A: Its Free oil production is 17 g/week and 40 g/week and 39 g/week.
